Measured values: PubChem BioAssay (NCI)
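Where inhibition never reached the appropriate level, the endpoint shown equals the highest concentration tested. Otherwise, values were interpolated linearly from a five-concentration, 48-hour dose response in 96-well plates. GI50 is the concentration that inhibits growth by half. Definition used: TGI = concentration required for complete inhibition of growth.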

Key:
Assay in all cases: growth of human tumour cells (NCI), 48 h
HT29 colon = system: HT29 colon
NCI-H23 lung = system: NCI-H23 lung
HCT-15 colon = system: HCT-15 colon
M14 melanoma = system: M14 melanoma
MDA-MB-231 breast = system: MDA-MB-231 breast
NCI/ADR-RES ovarian = system: NCI/ADR-RES ovarian
NCI-H522 lung = system: NCI-H522 lung
DLD-1 colon = system: DLD-1 colon
KM20L2 colon = system: KM20L2 colon
DMS 273 small cell lung = system: DMS 273 small cell lung

SMILES | GI50 (HT29 colon) [µM] | TGI (HT29 colon) [µM] | GI50 (NCI-H23 lung) [µM] | TGI (NCI-H23 lung) [µM] | GI50 (HCT-15 colon) [µM] | TGI (HCT-15 colon) [µM] | GI50 (M14 melanoma) [µM] | TGI (M14 melanoma) [µM] | GI50 (MDA-MB-231 breast) [µM] | TGI (MDA-MB-231 breast) [µM] | GI50 (NCI/ADR-RES ovarian) [µM] | TGI (NCI/ADR-RES ovarian) [µM] | GI50 (NCI-H522 lung) [µM] | TGI (NCI-H522 lung) [µM] | TGI (DLD-1 colon) [µM] | TGI (KM20L2 colon) [µM] | TGI (DMS 273 small cell lung) [µM]
COc1ccc(-c2cn3ccnc3c(-c3ccc(Cl)cc3)n2)cc1 | 6.66 | > 100 | 4.71 | 40.3 | 3.16 | > 100 | 5.95 | > 100 | 4.13 | 55.9 | 3.77 | 28.2 | > 100 | > 100 | – | – | –
CN(CCOc1ccc(NS(C)(=O)=O)cc1)CCc1ccc(NS(C)(=O)=O)cc1 | > 100 | > 100 | > 100 | > 100 | > 100 | > 100 | > 100 | > 100 | > 100 | > 100 | > 100 | > 100 | > 100 | > 100 | – | – | –
OC(Cc1cccc2ccccc12)CN1CCC(c2ccccc2)CC1 (centres undefined) | – | 25.8 | – | 30.8 | – | 30.4 | – | 28.7 | – | 28.4 | – | 28.5 | – | 21.9 | – | – | –
COc1ccc(OCC(=O)O)c2c1CCC(C)C2=O (centres undefined) | – | > 100 | – | – | – | > 100 | – | > 100 | – | – | – | – | – | > 100 | > 100 | > 100 | > 100
COC(OC)c1cccnc1C | – | > 100 | – | > 100 | – | > 100 | – | > 100 | – | – | – | – | – | > 100 | > 100 | > 100 | > 100
COc1ccc2c(CN3CCCC[C@H]3O)cc3cc4c(cc3c2c1)OCO4 | 0.274 | 1.93 | 0.445 | 1.82 | 0.369 | 10.6 | 0.319 | 1.15 | 0.62 | 8.43 | 0.435 | 6.94 | 0.214 | 0.559 | – | – | –
O=C1C(=O)N(c2cc(Cl)ccc2Cl)C(=O)C(=O)C1c1nc2ccccc2s1 | – | > 100 | – | > 100 | – | > 100 | – | > 100 | – | – | – | – | – | > 100 | > 100 | > 100 | > 100
OC[C@H]1N[C@H](CO)[C@@H](O)[C@H]1O | – | > 100 | – | > 100 | – | > 100 | – | > 100 | – | > 100 | – | > 100 | – | > 100 | – | – | –
Cc1nc(Nc2ccc(Cl)cc2)sc1C(=O)Nc1cccc2c(=O)[nH][nH]c(=O)c12 | – | 41.6 | – | 40.5 | – | 71.3 | – | 86.2 | – | – | – | – | – | 75.5 | 86.4 | 41.2 | > 100
COC(=O)c1c(C(=O)O)c(-c2ccccc2)c(-c2ccccc2)c(-c2ccccc2)c1-c1ccccc1 | > 100 | > 100 | > 100 | > 100 | > 100 | > 100 | > 100 | > 100 | > 100 | > 100 | > 100 | > 100 | 88.5 | > 100 | – | – | –
Nc1ccc(C(=O)N/C(=C\c2ccc3c(c2)OCO3)c2nc3ccccc3s2)cc1 | – | 25.8 | – | – | – | 23.4 | – | 23.9 | – | – | – | – | – | 28.5 | 59.7 | 28.7 | 34.2
COc1ccc(C(=O)c2ccccc2)c(O)c1 | 43.8 | > 100 | > 100 | > 100 | 80.7 | > 100 | 81.7 | > 100 | > 100 | > 100 | 53.1 | > 100 | 89.9 | > 100 | – | – | –
CN(C)C(=S)/N=c1\ssc(=Nc2ccccc2)n1-c1ccccc1 | – | > 100 | – | > 100 | – | > 100 | – | 44.2 | – | – | – | – | – | 34 | > 100 | – | 48.5
Cc1cc(C)c(-c2c(O)c(Br)c(-c3c(C)cc(C)c(Br)c3C)c(O)c2Br)c(C)c1Br | 2.34 | 10.2 | 3.21 | 11.8 | 2.51 | 10.8 | 1.97 | 4.71 | 1.65 | 4.42 | 2.88 | 10.7 | 1.67 | 3.6 | – | – | –
CCOC(=O)c1sc(NC(=O)COc2ccc(/C=C3\CCc4cc(OC)ccc4C3=O)cc2)nc1C | 13.7 | 28.6 | 13.7 | 32.4 | 7.96 | 21.1 | 13.3 | 26.2 | 13.1 | 31.8 | 8.49 | 37.5 | 4.56 | 12.1 | – | – | –
COc1c2c(c(O)c3c4c(c(C)cc13)C1OC3(C(OC)OC5CC(C)(O)C(OC6CC(C)(O)C(O)C(C)O6)C(C)O5)OC1C(OC)(O4)C31CO1)C(=O)C(O)CC2OC1CC(C)(O)C(OC(C)=O)C(C)O1 (centres undefined) | – | – | – | < 0.01 | – | 1.58 | – | 0.0156 | – | – | – | – | – | < 0.01 | 4.17 | – | < 0.01
C/C(=C\c1ccccc1)C(=O)c1c(C)cc(C)cc1C | – | > 100 | – | > 100 | – | > 100 | – | > 100 | – | – | – | – | – | > 100 | > 100 | > 100 | –
CC(C)C(Br)C(=O)NCC(=O)O (centres undefined) | – | > 100 | – | > 100 | – | > 100 | – | > 100 | – | > 100 | – | > 100 | – | > 100 | – | – | –
S=C(Nc1ccc(-c2nc3ccccc3s2)cc1)Nc1ccc(-c2nc3ccccc3s2)cc1 | 20.7 | 55.9 | 21.1 | 44.9 | 15.4 | 35.7 | 21.6 | 46.1 | 13.7 | 35 | 22.5 | 52 | 11.2 | 26.2 | – | – | –
Cn1cnnc1Sc1c([N+](=O)[O-])nc(-c2ccc([N+](=O)[O-])cc2)n1C | – | 34.3 | – | 32.4 | – | – | – | 30.6 | – | – | – | – | – | 19.7 | 29.3 | – | 31.8
CCNc1ccc2c(c1)C(=O)N(OS(C)(=O)=O)C2=O | – | > 100 | – | > 100 | – | > 100 | – | > 100 | – | > 100 | – | > 100 | – | 34.8 | – | – | –
